For two compounds, glucose uptake results are on record in EP3177150B1, “A COMBINATION OF VITAMIN D AND ZINC AND ITS USE” (Société des Produits Nestlé S.A., priority 2014, dated 2016).

Test [1] has as its system insulin resistant L6 differentiated muscle cells. Put plainly: glucose uptake (radiolabelled 2-deoxy-D-glucose) in insulin resistant L6 differentiated muscle cells (Palmitate exposure). In kind it is cell-based. How it is done: Each condition was tested in triplicate.
Test [2] relates to L6 differentiated muscle cells.
Protocol: The effect of zinc and vitamin D on glucose uptake in L6 differentiated muscle cells was measured after short (2hours) and long term (24 hours) incubations.
Ingredient J was tested at 10 µM and 20 µM.
Ingredient K was tested at 1 nM and 10 nM.
Ingredient J was prepared in water and stored at -20°C (mother solution at 2 M) and ingredient K was prepared in DMSO and stored at -20°C (mother solution at 0.01 mM). The day of the experiment, the ingredients were diluted in a serum-free medium (DMEM) containing 5.5 mM D-glucose to achieve the final tested concentrations and 0.1 % of DMSO.
L6 myoblasts were maintained in growth medium or DMEM 25 mM glucose supplemented with 10 % of fetal bovine serum (FBS), 100 U/ml penicillin, and 100 µg/ml streptomycin. For the glucose uptake study, cells were grown on 24 well plates at a density of 1000-1500 cells/well in 0.5 mL of growth medium. Five days after plating, the differentiation induction into myotubes was carried out in DMEM 25 mM glucose containing 2 % FBS, 100 U/ml penicillin, and 100 µg/ml streptomycin at 37°C under a 5 % CO2 atmosphere. The culture medium was changed every other day.
For short term incubation (2 hours), the day prior to the test, the culture medium was replaced by DMEM 25 mM D-glucose containing 0.25 % BSA, 100 U/ml penicillin, and 100 µg/ml streptomycin. The day after and prior to the test, cells were washed and incubated in DMEM containing 5.5 mM D-glucose, 0.34 % BSA in the presence of the ingredients for 2 hours with and without insulin (100 nM).
For long term incubation (24 hours), the day prior to the test, cells were pre-incubated in the presence of the tested ingredients (ingredient J, K, or a combination thereof) for 18 hours in DMEM 25 mM D-glucose containing 0.25 % BSA, 100 U/ml penicillin, and 100 µg/ml streptomycin in the absence of insulin. The day after and prior to the test, cells were washed and incubated in the presence of the tested ingredients for 6 hours more in DMEM containing 5.5 mM D-glucose, 0.34 % BSA without insulin. Insulin (100 nM) was added for the last 2 hours.
In normal and physiopathological conditions, glucose uptake was measured by incubation of the cells with radiolabelled 2-deoxy-D-[1,2 3H] glucose for 15 min. Glucose uptake was arrested by two washing steps in ice-cold PBS 1X. Then cells were solubilized in 0.1 N NaOH for 30 min. Cell associated radioactivity was then counted and protein quantification was determined using the coloric Lowry method.
Each condition was tested in triplicate. Insulin (100 and 1000 nM / 2 hours) and Metformin (1.5 mM / 24 hours) were used as positive controls.
Results are expressed in pmol glucose incorporated / min / mg protein and in % of control or basal condition or insulin 0 nM (100 %).
A statistical analysis allowing multiple comparisons (one way ANOVA followed by a Dunnett's t test; * P < 0.05, **P < 0.01, ***P < 0.001 versus control condition) was carried out.
The mark [3] stands for this setting: insulin resistant cells (Palmitate 6 hours), short term incubation (2 hrs), absence of insulin.
[4] abbreviates: insulin resistant cells (Palmitate 6 hours), short term incubation (2 hrs), presence of insulin (100 nM).
Setting [5] is: insulin resistant cells, long term incubation (24 hrs), absence of insulin.
Setting [6] is: insulin resistant cells, long term incubation (24 hrs), presence of insulin (100 nM, last 2 hours).
Where [7] appears, read: long term incubation (24 hrs), absence of insulin.
[8] abbreviates: long term incubation (24 hrs), presence of insulin (100 nM, last 2 hours).
[9] abbreviates: short term incubation (2 hrs), absence of insulin, J 10 and 20 µM, K 1 and 10 nM, versus control.
[10] abbreviates: short term incubation (2 hrs), presence of insulin (100 nM), J 10 and 20 µM, K 1 and 10 nM.

Structures are written as SMILES. Read-outs that look alike come from different tables or passages of the source.

Regarding `C=C1/C(=C\C=C2/CCC[C@]3(C)[C@@H]([C@H](C)CCCC(C)(C)O)CC[C@@H]23)C[C@@H](O)C[C@@H]1O` [ingredient K, 1,25-dihydroxyvitamin D3], the glucose uptake result in test [1] (setting [3]) is “significant increases”; in test [1] (setting [4]), “did not increase insulin-induced glucose uptake”; in test [1] (setting [5]) it was “no increases or a slight but not significant increase”; in test [1] (setting [6]), “No increase or a slight but not significant increase”; in test [2] (setting [7]), “no increases or a slight but not significant increase”; in test [2] (setting [8]), “No increase or a slight but not significant increase”. Besides, the glucose uptake entry was “significant increases” in test [2] (setting [9]) and “did not increase insulin-induced glucose uptake” in test [2] (setting [10]).

Regarding `[Cl-].[Cl-].[Zn+2]` [ingredient J, zinc chloride], the glucose uptake result in test [1] (setting [3]), in test [1] (setting [4]), in test [1] (setting [5]), in test [1] (setting [6]), in test [2] (setting [7]) and in test [2] (setting [8]) was “no increase or a slight but not significant increase” in each case. Further, the glucose uptake entry in test [2] (setting [9]) and in test [2] (setting [10]) was “no increase or a slight but not significant increase” in each case.
